Measurements as given in PMC8618356, “Optimization, Characterization and Pharmacokinetic Study of Meso-Tetraphenylporphyrin Metal Complex-Loaded PLGA Nanoparticles” (International Journal of Molecular Sciences, 2021).
Like-named read-outs stand apart in the source and are kept apart here.

What was measured:
[1] = tested on: BALB/c female mice; test: Acute toxicity analysis; assay type: in vivo; settings: i.v. tail vein, 24 h
Description: All experimental procedures with animals (mice and rats) were performed according to the University Ethics Committee for the use of experimental animals and animal studies were carried out as per the guidelines of the European Medicines Agency, Amsterdam, the Netherlands.
MeP and MeP-NP acute toxicity analysis was accomplished using randomly divided mice groups (n = 3). The samples were diluted in PBS and injected (200 μL) via the lateral tail vein. Due to poor water solubility, MePs were preliminarily dissolved in DMSO and Tween 80: the final solution represented 5% v/v DMSO and 2% Tween 80 v/v in PBS. Survival was registered for 24 h after injection.

[2] = In vitro release study of MeP-loaded NPs in PBS pH 7.4 with 0.1% Tween 80; assay type: physicochemical; settings: after 180 h
[3] = rat, in vivo, iv
Description: The MeP and MeP-NPs were administered via the lateral tail vein at tahe dose of 12.5 (NiTPP, CoTPP, and corresponding NPs at the equivalent dose) and 6.3 mg/kg (MnClTPP and MnClTPP-NPs at the equivalent dose).
Female Wistar rats (body weight 220–240 g) were supplied by Stolbovaya animal facility (Branch of the Scientific Center of Biomedical Technologies of the Federal Medical Biological Agency (Moscow, Russia)). The animals were kept under controlled conditions (temperature of 22 ± 2 °C and relative humidity of 50 ± 10%) with free access to water and standard pellet feed.
The MeP and MeP-NPs pharmacokinetics study was accomplished using randomly divided rat groups (n = 3). Blood samples (50 μL) were collected before injection and after at different time points: 0.25, 0.50, 1.0, 3.0, 6.0, 24.0, and 48.0 h. The blood samples were diluted to 1.0 mL and analyzed with ICP-MS (Agilent 7500C, Agilent Technologies, Tokyo, Japan) [112]. The sample introduction system consisted of a robust Babington nebulizer with a Scott spray chamber (Agilent Technologies, Tokyo, Japan) cooled by a Peltier element (2 °C). The data were acquired and processed with the ICP-MS ChemStation (Agilent Technologies, version G1834B; Santa Clara, CA, USA) software package. The internal standard method was applied in order to take into account the effect of the matrix; Rh was used as internal standard. For dilution of the whole blood samples and standard solution, the mixture of 0.1% Triton X-100–1% HNO3 was used. The same solution was used as the mobile phase of the mass spectrometer.
The pharmacokinetic parameters of MeP were estimated using standard non-compartmental methods [113]. The volume of distribution (Vd), mean residence time (MRT), elimination half-life (t1/2), and area under the plasma concentration–time curve from 0 h to infinity (AUCinf) were determined after intravenous administration of MeP-loaded NPs to animals. All calculations were performed using the PKSolver add-in program for Microsoft Excel [114].

[4] = In vitro release study of MeP-loaded NPs in PBS pH 7.4 with 0.1% Tween 80; assay type: physicochemical; settings: for release rate constant kк (Korsmeyer–Peppas model) / release exponent n (Korsmeyer–Peppas model): MeP release from MeP-loaded PLGA NPs; for release rate constant kк (Korsmeyer–Peppas model): PBS pH 7.4, 0.1% Tween 80, 37 °C; for release exponent n (Korsmeyer–Peppas model): less than 0.43 = Fickian diffusion; for duration of the fast (rapid) release phase: biphasic release from MeP-loaded NPs
Excerpt: We analyzed the release according to the method of Abouelmag et al. using a phosphate-buffered saline (PBS) pH 7.4 containing 0.1% Tween 80 (Figure 8) as a release medium.
We determined the MeP release mechanisms by fitting the data obtained by applying several release kinetic models (Table 7). […] The release exponent values were n = 0.01 for NiTPP, n = 0.06 for CoTPP, and n = 0.11 for MnClTPP, and less than 0.43, indicating Fickian diffusion of MeP [92].
The time-dependent release of MeP was analyzed by dissolving 3 mg of NPs in 1 mL of PBS (0.01 M, pH 7.4) and incubation in a dark glass bottle containing 40 mL of PBS (0.01 M, pH 7.4) and 0.1% (w/v) Tween 80 solution. The probes were kept on a shaker incubator at 90 rpm and 37 °C. Aliquots of 1 mL of media were taken at 0, 0.25, 0.5, 0.75, 1, 1.5, 2, 3, 4, 24, 48, 72, 120, 144, and 192 h and replenished with 1 mL of fresh PBS. The collected aliquots were centrifuged for 3 min at 5000× g at 37 °C. The supernatants were removed and lyophilized as well as the sediments. The amount of MeP released at each time point was calculated as described above according to optical absorption.

[5] = MeP loading content and encapsulation efficiency of PLGA NPs (spectrophotometry); assay type: physicochemical; settings: optimized MeP-loaded PLGA NPs; for MeP loading content (LC): observed data
Description: EE and LC calculation is a critical stage in NP analysis, evaluating the MeP amount in NPs’ core. The EE of MeP was determined by dissolving 4 mg of NPs in 4 mL of distilled water followed by centrifugation at 5000× g for 3 min and subsequent lyophilization. The optical density of the sediment and supernatant was assessed at 465 nm for MnClTPP, 433 nm for NiTPP, and 428 nm for CoTPP. The entrapment efficiency of MeP (EE) was calculated according to Equation (9):(9) EE (%)=The mass of MeP in the nanoparticles, mg/The mass of the nanoparticles weight, mg ∗100%
MeP LC corresponded to the optical density of 4 mg of lyophilized NPs in 4 mL of DMSO. Subsequent absorption analysis was performed as indicated earlier and LC calculated according to the following Equation (10): (10) LC (%) = Absorbance∗VDMSO/ε∗msample∗100% where VDMSO is the total volume of suspension containing NPs (L), ε is the extinction coefficient of MeP in DMSO (ε = 116,280 M^−1 cm^−1 for MnClTPP, ε = 36,797 M^−1 cm^−1 for NiTPP, ε = 87,448 M^−1 cm^−1 for CoTPP), and msample is the NPs mass (g).

[6] = tested on: HeLa, MCF-7, and SK-OV-3 cells; test: Cytotoxicity, MTT assay; assay type: cell-based, human; settings: all examined cell lines, 72 h
Description: The cancer cell lines HeLa (human cervical carcinoma), MCF-7 (human breast adenocarcinoma), and SK-OV-3 (human ovarian carcinoma) were purchased from the American Type Culture Collection (ATCC, Manassas, VA, USA). Cells were maintained in DMEM medium supplemented with 10% fetal bovine serum and gentamycin (50 μg/mL). Cells were maintained in plastic 25 cm^2 cell culture flasks at 37 °C in a humidified atmosphere containing 5% CO2. HeLa, MCF-7, and SK-OV-3 cells were plated before reaching 80% confluence using trypsin/EDTA solution.
MCF-7, SK-OV-3, and HeLa cells were plated in 96-well plates (5000 cells per well) one day before the experiment and incubated under standard conditions. MeP and MeP-NPs were added in triplets in the concentration range 0.125–100 μM (according to the MeP concentration) and incubated for 2 h. To determine cytotoxicity, cells were treated with AA alone or in combination with MeP in a molar ratio of 1:20 to MeP and then incubated for 72 h. Cell survival was determined using the standard MTT assay. Cell viability was determined as the percent of untreated control. Mean survival values were calculated in Excel (Microsoft Corporation, Redmond, Washington, DC, USA)) and data visualization was performed in OriginPro (version 2020b, OriginLab Corp., Northampton, MA, USA).

Row | SMILES | Mice Survived ([1]; 6.25 mg/kg) | Mice Survived ([1]; 12.5 mg/kg) | Mice Survived ([1]; 25 mg/kg) | Mice Survived ([1]; 50 mg/kg) | MeP released from NPs [2] [%] | AUCinf ([3]; 6.3 mg/kg) | MRT ([3]; 6.3 mg/kg) [h] | Vd ([3]; 6.3 mg/kg) [L/kg] | t1/2 ([3]; 6.3 mg/kg) [h] | release rate constant kк (Korsmeyer–Peppas model) [4] [h⁻¹] | release exponent n (Korsmeyer–Peppas model) [4] | duration of the fast (rapid) release phase [4] [min] | encapsulation efficiency (EE) [5] [%] | MeP loading content (LC) [5] [%] | AUCinf ([3]; 12.5 mg/kg) | MRT ([3]; 12.5 mg/kg) [h] | Vd ([3]; 12.5 mg/kg) [L/kg] | t1/2 ([3]; 12.5 mg/kg) [h] | cytotoxicity alone, without combination (in words) [6]
1 | C1=Cc2nc1c(-c1ccccc1)c1ccc([n-]1)c(-c1ccccc1)c1nc(c(-c3ccccc3)c3ccc([n-]3)c2-c2ccccc2)C=C1.[Cl-].[Mn+3] [MnClTPP, MnCl3-tetraphenylporphyrin chloride] | 3/3 | 3/3 | 3/3 | 2/3 | 80 | 15,362 ± 5377 (µg/mL) (h) | 62 ± 21 | 0.013 ± 0.004 | 44 ± 14 | 49.4 | 0.11 | 15 | 79.9 | 28.9 |  |  |  |  | 
2 | C1=Cc2nc1c(-c1ccccc1)c1ccc([n-]1)c(-c1ccccc1)c1nc(c(-c3ccccc3)c3ccc([n-]3)c2-c2ccccc2)C=C1.[Co+2] [CoTPP] | 3/3 | 3/3 | 2/3 | 0/3 |  |  |  |  |  | 74.3 | 0.06 | 30 | 79.7 | 8.7 | 60,370 ± 18,111 (µg/mL) (h) | 27 ± 7 | 0.003 ± 0.001 | 17 ± 4 | 
3 | O=C1O[C@H]([C@@H](O)CO)C(O)=C1O [AA, ascorbic acid] |  |  |  |  |  |  |  |  |  |  |  |  |  |  |  |  |  |  | lacked cell growth inhibition
4 | C1=Cc2nc1c(-c1ccccc1)c1ccc([n-]1)c(-c1ccccc1)c1nc(c(-c3ccccc3)c3ccc([n-]3)c2-c2ccccc2)C=C1.[Ni+2] [NiTPP] | 3/3 | 3/3 | 1/3 | 0/3 |  |  |  |  |  | 91.3 | 0.01 | 30 |  | 11.1 | 612 ± 184 (µg/mL) (h) | 25 ± 6 | 2.683 ± 0.805 | 19 ± 6 | 
